The target in experiment [1] is CDK7/CycH (Homo sapiens, UniProt P50613). As to the kind of experiment: CDK7/CycH inhibition (Tables A1, A2). Format: biochemical.
Experiment [2] deals with CDK9/CycT (Homo sapiens, UniProt P50750). As to the kind of experiment: CDK9/CycT inhibition (Tables A1, A2). Format: biochemical.
For experiment [3], the target named is CDK2/CycA (Homo sapiens, UniProt P24941). The experiment is described as follows: CDK2/CycA inhibition (Tables A1, A2). Format: biochemical.
Experiment [4] has as its system Jurkat cells. As to the kind of experiment: Jurkat proliferation assay (CellTiter-Glo). The experiment is classed as cell-based. The conditions noted are these: Homo sapiens, Jurkat; read-out: Jurkat IC50. How it is done:
Jurkat cells were seeded at a density of 25,000 cells/well in 96-well plates. Cells were then treated with the indicated compounds in a 10-pt dose escalation format from 1 nM to 10 μM or DMSO control for 72 hours. After 72 hours, the cells were assayed using CellTiter-Glo Luminescent Cell Viability Assay (Promega) to determine cell viability by measuring the amount of ATP present in each sample cell population, which is an indicator of cell metabolic activity. […] All data points were performed in biological triplicate. Error bars are +/−SD.
Jurkat cells were seeded at a density of 25,000 cells/well in 96-well plates. Cells were then treated with the indicated compounds in a 10-pt dose escalation format from 1 nM to 10 μM or DMSO control for 72 hrs. After 72 hrs, cells were assayed using CellTiter-Glo Luminescent Cell Viability Assay (Promega) to determine cell viability by measuring the amount of ATP present in each sample cell population, which is an indicator of cell metabolic activity. […] All data points were performed in biological triplicate. Error bars are +/−SD.

CDK9/CycT, sequence (P50750 whole entry): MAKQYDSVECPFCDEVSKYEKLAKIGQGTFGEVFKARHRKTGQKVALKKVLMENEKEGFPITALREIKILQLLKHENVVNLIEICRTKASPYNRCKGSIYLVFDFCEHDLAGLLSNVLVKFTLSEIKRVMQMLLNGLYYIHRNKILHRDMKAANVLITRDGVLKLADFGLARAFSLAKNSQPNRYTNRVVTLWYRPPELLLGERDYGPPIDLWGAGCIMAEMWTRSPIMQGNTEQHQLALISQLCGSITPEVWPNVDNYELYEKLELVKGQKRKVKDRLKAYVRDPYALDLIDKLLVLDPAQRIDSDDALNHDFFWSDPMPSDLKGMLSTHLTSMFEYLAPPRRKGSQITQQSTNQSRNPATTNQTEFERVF
CDK9/CycT, sequence (O60563 whole entry partner): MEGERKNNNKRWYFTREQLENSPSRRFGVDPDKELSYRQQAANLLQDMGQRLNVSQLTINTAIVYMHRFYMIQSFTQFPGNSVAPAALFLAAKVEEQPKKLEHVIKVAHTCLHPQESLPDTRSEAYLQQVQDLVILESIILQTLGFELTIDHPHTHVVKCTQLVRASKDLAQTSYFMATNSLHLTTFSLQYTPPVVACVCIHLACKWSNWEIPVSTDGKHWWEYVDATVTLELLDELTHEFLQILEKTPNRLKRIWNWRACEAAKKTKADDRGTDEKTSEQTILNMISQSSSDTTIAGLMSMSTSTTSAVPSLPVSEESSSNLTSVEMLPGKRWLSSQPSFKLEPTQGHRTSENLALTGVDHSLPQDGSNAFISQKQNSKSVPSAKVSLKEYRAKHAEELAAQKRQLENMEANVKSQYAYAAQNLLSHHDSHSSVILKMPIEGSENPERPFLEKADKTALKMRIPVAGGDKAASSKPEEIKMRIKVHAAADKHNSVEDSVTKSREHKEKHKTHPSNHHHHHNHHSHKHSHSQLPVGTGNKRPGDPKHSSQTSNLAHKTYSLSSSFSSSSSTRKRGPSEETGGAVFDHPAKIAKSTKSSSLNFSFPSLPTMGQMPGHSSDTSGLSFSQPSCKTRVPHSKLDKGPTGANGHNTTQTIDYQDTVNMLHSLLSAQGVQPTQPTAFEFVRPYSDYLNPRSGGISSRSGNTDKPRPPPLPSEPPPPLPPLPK
CDK7/CycH, sequence (P50613 whole entry): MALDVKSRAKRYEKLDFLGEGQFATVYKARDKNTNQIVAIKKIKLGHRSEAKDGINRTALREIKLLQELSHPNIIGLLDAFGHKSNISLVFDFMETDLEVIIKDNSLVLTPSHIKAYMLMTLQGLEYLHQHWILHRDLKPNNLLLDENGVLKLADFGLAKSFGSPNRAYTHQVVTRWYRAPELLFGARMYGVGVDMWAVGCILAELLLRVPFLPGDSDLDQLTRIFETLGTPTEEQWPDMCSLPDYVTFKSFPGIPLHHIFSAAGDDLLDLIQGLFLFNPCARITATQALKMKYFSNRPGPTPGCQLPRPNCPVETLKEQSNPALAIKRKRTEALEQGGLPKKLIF
CDK7/CycH, sequence (P51946 whole entry partner): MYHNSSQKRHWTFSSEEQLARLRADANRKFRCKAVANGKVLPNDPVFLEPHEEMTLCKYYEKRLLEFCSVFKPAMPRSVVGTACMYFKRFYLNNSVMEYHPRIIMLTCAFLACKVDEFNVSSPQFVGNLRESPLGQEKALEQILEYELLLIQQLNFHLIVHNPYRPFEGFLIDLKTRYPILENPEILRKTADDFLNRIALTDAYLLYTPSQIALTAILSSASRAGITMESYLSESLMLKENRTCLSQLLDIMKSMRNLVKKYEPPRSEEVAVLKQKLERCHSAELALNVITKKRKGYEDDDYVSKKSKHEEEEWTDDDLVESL

For the compound `C=CC(=O)Nc1cccc(Nc2cc(N3CCCC[C@@H]3CCO)nc3c(CC)cnn23)c1` [MFH-1-143-1, (R)—N-(3-(3-ethyl-5-(2-(2-hydroxyethyl)piperidin-1-yl)pyrazolo[1,5-a]pyrimidin-7-ylamino)phenyl)acrylamide], the IC50 in experiment [1] was 2510 nM; in experiment [2], 859 nM; in experiment [3] it was > 10000 nM.

Turning to `C=CC(=O)Nc1ccc(C(=O)Nc2cccc(Nc3nc(N[C@H]4CC[C@H](N(C)C)CC4)nc4c3ncn4C(C)C)c2)cc1` [THZ-5-38-1, 4-Acrylamido-N-(3-((2-((trans-4-(dimethylamino)cyclohexyl)amino)-9-isopropyl-9H-purin-6-yl)amino)phenyl)benzamide], the figures for the half-maximal inhibitory concentration (IC50) in experiment [1], in experiment [2] and in experiment [3] were 25.9 nM, 220 nM and 563 nM, respectively.

As to `C=CC(=O)NCc1cccc(Nc2nc(N[C@H]3CC[C@H](N(C)C)CC3)nc3c2ncn3C(C)C)c1` [SB1-E-16, N-(3-(2-((1r,4r)-4-(Dimethylamino)cyclohexylamino)-9-isopropyl-9H-purin-6-ylamino)benzyl)acrylamide], the IC50 in experiment [1] amounted to 255 nM; in experiment [2] it was 116 nM; in experiment [3], 30.3 nM.

For `C=CC(=O)Nc1cccc(CNc2cc(N3CCCC[C@@H]3CCO)nc3c(CC)cnn23)c1` [MFH-1-56-1, (R)—N-(3-((3-ethyl-5-(2-(2-hydroxyethyl)piperidin-1-yl)pyrazolo[1,5-a]pyrimidin-7-ylamino)methyl)phenyl)acrylamide], the IC50 in experiment [1] stood at 345 nM; in experiment [3], 1530 nM.

Turning to `C=CC(=O)NC1CCCC(Nc2nc(N[C@H]3CC[C@H](N(C)C)CC3)nc3c2ncn3C(C)C)C1` (stereo partly shown) [SB1-E-15, N-(3-(2-((1r,4r)-4-(Dimethylamino)cyclohexylamino)-9-isopropyl-9H-purin-6-ylamino)cyclohexyl)acrylamide], the IC50 in experiment [1] was determined as 763 nM; in experiment [2], 58.9 nM; in experiment [3] it was 1480 nM.

In the case of `CC(C)n1cnc2c(Nc3cccc(NC(=O)/C=C/CN(C)C)c3)nc(N[C@H]3CC[C@H](N(C)C)CC3)nc21` [THZ-5-18-1], the IC50 in experiment [1] came to 121 nM; in experiment [2], 1530 nM; in experiment [4], 1340 nM.

Turning to `CC(C)n1cnc2c(Nc3cccc(NC(=O)c4ccc(NC(=O)/C=C/CN(C)C)cc4)c3)nc(N[C@H]3CC[C@H](N(C)C)CC3)nc21` [THZ-3-49-1, 4-((E)-4-(Dimethylamino)but-2-enamido)-N-(3-((2-(((1r,4r)-4-(dimethylamino)cyclohexyl)amino)-9-isopropyl-9H-purin-6-yl)amino)phenyl)benzamide], the concentration for half-maximal inhibition (IC50) in experiment [1] worked out at 9.43 nM; in experiment [2] it was 445 nM; in experiment [4] it was 4030 nM.

As to `C=CC(=O)Nc1ccc(C(=O)Nc2cccc(Nc3cc(N[C@H]4CC[C@H](N(C)C)CC4)nc4c(CC)cnn34)c2)cc1` [SB1-E-22, 4-Acrylamido-N-(3-(5-((1r,4r)-4-(dimethylamino)cyclohexylamino)-3-ethylpyrazolo[1,5-a]pyrimidin-7-ylamino)phenyl)benzamide], the IC50 was determined as 246 nM in experiment [1], 88.9 nM in experiment [2] and 28300 nM in experiment [3].

In the case of `C=CC(=O)Nc1cccc(Nc2cc(N3CCCC[C@H]3CCO)nc3c(CC)cnn23)c1` [MFH-1-141-1, (S)—N-(3-(3-ethyl-5-(2-(2-hydroxyethyl)piperidin-1-yl)pyrazolo[1,5-a]pyrimidin-7-ylamino)phenyl)acrylamide], the IC50 in experiment [1] is 1210 nM; in experiment [2], 23.9 nM; in experiment [3], 932 nM.

With `C=CC(=O)Nc1cccc(Nc2nc(N[C@H]3CC[C@@H](N(C)C)CC3)nc3c2ncn3C(C)C)c1` [E-1(SB1-E-14), N-(3-(2-((1s,4s)-4-(Dimethylamino)cyclohexylamino)-9-isopropyl-9H-purin-6-ylamino)phenyl)acrylamide], the IC50 in experiment [1] is 254 nM; in experiment [2], 1360 nM; in experiment [3], 735 nM.

Turning to `C=CC(=O)Nc1ccc(C(=O)Nc2cccc(Nc3nc(N4CCCCC4CCO)nc4c(CC)cnn34)c2)cc1` (stereo not shown) [SB1-E-19, 4-Acrylamido-N-(3-(8-ethyl-2-(2-(2-hydroxyethyl)piperidin-1-yl)pyrazolo[1,5-a][1,3,5]triazin-4-ylamino)phenyl)benzamide], the IC50 worked out at 383 nM in experiment [1], 123 nM in experiment [2] and 295 nM in experiment [3].

On to `C=CC(=O)Nc1cccc(Nc2cc(N3CCCC(N)C3)nc3c(CC)cnn23)c1` (stereo not shown) [MFH-3-140-1, N-(3-(5-(3-aminopiperidin-1-yl)-3-ethylpyrazolo[1,5-a]pyrimidin-7-ylamino)phenyl)acrylamide], for which the IC50 is 356 nM in experiment [1], 465 nM in experiment [2] and 4190 nM in experiment [3].

With `C=CC(=O)NC1CCCC(Nc2nc(N[C@H]3CC[C@H](N(C)C)CC3)nc3c(CC)cnn23)C1` (stereo partly shown) [MFH-2-78-1, N-(3-((2-(((1r,4r)-4-(dimethylamino)cyclohexyl)amino)-8-ethylpyrazolo[1,5-a][1,3,5]triazin-4-yl)amino)cyclohexyl)acrylamide], the IC50 in experiment [1] was 842 nM; in experiment [2] it was 68.7 nM; in experiment [3] it was > 1000 nM.

In the case of `C=CC(=O)Nc1cccc(CNc2cc(N3CCCC[C@H]3CCO)nc3c(CC)cnn23)c1` [MFH-1-49-1, (S)—N-(3-(((3-ethyl-5-(2-(2-hydroxyethyl)piperidin-1-yl)pyrazolo[1,5-a]pyrimidin-7-yl)amino)methyl)phenyl)acrylamide], the figures for the IC50 in experiment [1] and in experiment [3] were 165 nM and 27.6 nM, respectively.

Consider `C=CC(=O)Nc1cccc(CNc2nc(N[C@H]3CC[C@H](N(C)C)CC3)nc3c(CC)cnn23)c1` [MFH-2-67-1, N-(3-(((2-(((1r,4r)-4-(dimethylamino)cyclohexyl)amino)-8-ethylpyrazolo[1,5-a][1,3,5]triazin-4-yl)amino)methyl)phenyl)acrylamide], for which the IC50 is 23.7 nM in experiment [1], 103 nM in experiment [2] and 1020 nM in experiment [3].

Consider `C=CC(=O)Nc1ccc(C(=O)N2CCCC(Nc3cc(NC4CCC(N(C)C)CC4)nc4c(CC)cnn34)C2)cc1` (stereo not shown) [THZ-4-148-1], for which the IC50 in experiment [1] was > 10000 nM; in experiment [2], 1710 nM; in experiment [3], 7050 nM.

As for `C=CC(=O)Nc1ccc(C(=O)Nc2cccc(Nc3cc(N[C@H]4CC[C@H](N(C)C)CC4)nc4c(C(C)C)cnn34)c2)cc1` [SB1-E-25, 4-Acrylamido-N-(3-(5-((1r,4r)-4-(dimethylamino)cyclohexylamino)-3-isopropylpyrazolo[1,5-a]pyrimidin-7-ylamino)phenyl)benzamide], the results for the 50% inhibitory concentration (IC50) in experiment [1], in experiment [2] and in experiment [3] were 410 nM, 387 nM and 33400 nM, respectively.

For `C=CC(=O)N[C@H]1CC[C@H](Nc2cc(N3CCCC[C@H]3CCO)nc3c(CC)cnn23)CC1` [MFH-1-175-1, N-((1S,4r)-4-((3-ethyl-5-((S)-2-(2-hydroxyethyl)piperidin-1-yl)pyrazolo[1,5-a]pyrimidin-7-yl)amino)cyclohexyl)acrylamide], the values for the IC50 in experiment [1], in experiment [2] and in experiment [3] were 442 nM, 48.2 nM and 1080 nM, respectively.

As for `C=CC(=O)Nc1ccc(C(=O)N2CCCC(Nc3cc(N4CCCC(N)C4)nc4c(CC)cnn34)C2)cc1` (stereo not shown) [THZ-4-141-1], the IC50 in experiment [1] is 3600 nM; in experiment [2], 3570 nM; in experiment [3], > 1000 nM.

As to `C=CC(=O)Nc1ccc(C(=O)Nc2cccc(Nc3cc(N4CCCCC4CCO)nc4c(CC)cnn34)c2)cc1` (stereo not shown) [SB1-E-24, 4-Acrylamido-N-(3-(3-ethyl-5-(2-(2-hydroxyethyl)piperidin-1-yl)pyrazolo[1,5-a]pyrimidin-7-ylamino)phenyl)benzamide], the IC50 is 774 nM in experiment [1], 140 nM in experiment [2] and 1260 nM in experiment [3].

For the compound `C=CC(=O)NC1CCCC(Nc2cc(N3CCCC[C@H]3CCO)nc3c(CC)cnn23)C1` (stereo partly drawn) [MFH-1-167-1, N-(3-(3-ethyl-5-((S)-2-(2-hydroxyethyl)piperidin-1-yl)pyrazolo[1,5-a]pyrimidin-7-ylamino)cyclohexyl)acrylamide], the IC50 in experiment [1] was 739 nM; in experiment [2], 24.7 nM; in experiment [3] it was 328 nM.

On to `C=CC(=O)Nc1ccc(Nc2cc(N3CCCC[C@H]3CCO)nc3c(CC)cnn23)cc1` [MFH-1-187-1, (S)—N-(4-((3-ethyl-5-(2-(2-hydroxyethyl)piperidin-1-yl)pyrazolo[1,5-a]pyrimidin-7-yl)amino)phenyl)acrylamide], for which the half-inhibitory concentration (IC50) in experiment [1] is 279 nM; in experiment [2], 23.5 nM; in experiment [3], 171 nM.

As to `C=CC(=O)Nc1ccc(C(=O)N2CCCC(Nc3nc(N4CCCCC4CCO)nc4c3ncn4C(C)C)C2)cc1` (stereo not shown) [THZ-4-149-1], the values for the IC50 in experiment [1], in experiment [2] and in experiment [3] were 4430 nM, 2290 nM and > 1000 nM, respectively.

As for `C=CC(=O)N[C@H]1CC[C@@H](Nc2cc(N3CCCC[C@H]3CCO)nc3c(CC)cnn23)CC1` [MFH-1-169-1, N-((1R,4s)-4-((3-ethyl-5-((S)-2-(2-hydroxyethyl)piperidin-1-yl)pyrazolo[1,5-a]pyrimidin-7-yl)amino)cyclohexyl)acrylamide], the values for the IC50 in experiment [1], in experiment [2] and in experiment [3] were 7250 nM, 135 nM and 3880 nM, respectively.

On to `C=CC(=O)Nc1cccc(Nc2nc(N3CCCC[C@H]3CCO)nc3c(CC)cnn23)c1` [MFH-2-53-1, (S)—N-(3-(8-ethyl-2-(2-(2-hydroxyethyl)piperidin-1-yl)pyrazolo[1,5-a][1,3,5]triazin-4-ylamino)phenyl)acrylamide], for which the IC50 amounted to 1100 nM in experiment [1], 61.6 nM in experiment [2] and 53.6 nM in experiment [3].

As a reminder, the IC50 is the concentration needed to halve the response being measured.

Source of the values: patent publication US12098154B2, “Inhibitors of cyclin-dependent kinases” (Dana-Farber Cancer Institute, Inc., priority 2015, dated 2024).
